Experimental data from article PMC4478806 (The FASEB Journal, 2015).
Several values for one entry are separate records, joined by “and”; a condition that tells them apart may be missing. Identical values can stand only once. Like-named read-outs stand apart in the source and are kept apart here.

Legend:
[1] = molecular target: T1, human β1-adrenoceptor (Homo sapiens, UniProt P08588); settings: cited from earlier work
T1 construct: expressed in transfected cells

[2] = molecular target: T2, SNAP-β1D138A β1-adrenoceptor (Homo sapiens, UniProt P08588, D138A); assay: Confocal imaging of 3 nM BODIPY-TMR-CGP binding to SNAP-tagged D138A β1-adrenoceptor in CHO-K1 cells; settings: CHO-K1 cells transiently transfected with SNAP-β1D138A, 10 min
T2 construct: expressed in transfected cells; host or cells: CHO-K1 cells, transient transfection (pcDNA3.1)
T2 sequence (P08588 whole entry D138A): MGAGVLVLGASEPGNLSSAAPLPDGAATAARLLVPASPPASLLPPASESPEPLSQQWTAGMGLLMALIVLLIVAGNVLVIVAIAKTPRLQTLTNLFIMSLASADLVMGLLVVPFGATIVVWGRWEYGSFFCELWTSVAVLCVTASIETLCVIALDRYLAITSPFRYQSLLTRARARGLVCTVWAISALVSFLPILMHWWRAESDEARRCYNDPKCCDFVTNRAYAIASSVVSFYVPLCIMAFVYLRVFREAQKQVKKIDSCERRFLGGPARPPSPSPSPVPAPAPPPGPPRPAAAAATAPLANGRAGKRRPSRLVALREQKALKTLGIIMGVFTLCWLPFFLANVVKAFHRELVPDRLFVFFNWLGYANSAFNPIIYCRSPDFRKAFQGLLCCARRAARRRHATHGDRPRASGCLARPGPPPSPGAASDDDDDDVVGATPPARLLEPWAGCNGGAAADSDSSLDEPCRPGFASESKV
Description: The β1-yellow fluorescent protein (YFP)N and β1-YFPC receptor constructs were generated by fusing either the N-terminal fragment of YFP (YFPN; amino acids 1–155) or the C-terminal fragment of YFP (YFPC; amino acids 156–239) to the C-terminal end of the full-length wild-type human β1-adrenoceptor. The SNAP-β1 construct was generated by fusing the SNAP-tag (New England Biolabs, Ipswich, MA, USA) to the N-terminal end of the wild-type human β1-adrenoceptor. The D138A mutation ([7]) was introduced into the β1-YFPC and the SNAP-β1 sequence using the QuikChange site-directed mutagenesis kit (Agilent Technologies, Cheshire, United Kingdom). All sequences were confirmed by DNA sequencing. All receptor constructs were subcloned into pcDNA3.1 vectors.
Confocal microscopy was performed using a Zeiss LSM710 laser scanning microscope with a ×40 1.3 NA oil immersion lens. CHO-K1 cells were grown to 70% confluence in 8-well Labtek borosilicate chambered-cover glasses (Nalgene Nunc International, Fisher Scientific) and transiently transfected with SNAP-β1 or SNAP-β1D138A recombinant DNA using Lipofectamine 2000 and Opti-MEM medium according to the manufacturer’s instructions. […]

[3] = molecular target: T3, human β1-adrenoceptors containing 11 amino acid mutations that convert TM4 to the β2-adrenoceptor residues (CHO-β1TM4 cells) (Homo sapiens, UniProt P08588, A184I/A187G/C180L/G177V/I185V/L178I/L195Q/T181M/V179I/V189T/W199Y); assay: 3 nM BODIPY-TMR-CGP dissociation in absence and presence of unlabeled ligands in CHO-β1TM4 cells; type: binding; settings: infinite dilution, absence of unlabeled ligands
T3 construct: expressed in transfected cells
T3 sequence (P08588 whole entry G177V/L178I/V179I/C180L/T181M/A184I/I185V/A187G/V189T/L195Q/W199Y): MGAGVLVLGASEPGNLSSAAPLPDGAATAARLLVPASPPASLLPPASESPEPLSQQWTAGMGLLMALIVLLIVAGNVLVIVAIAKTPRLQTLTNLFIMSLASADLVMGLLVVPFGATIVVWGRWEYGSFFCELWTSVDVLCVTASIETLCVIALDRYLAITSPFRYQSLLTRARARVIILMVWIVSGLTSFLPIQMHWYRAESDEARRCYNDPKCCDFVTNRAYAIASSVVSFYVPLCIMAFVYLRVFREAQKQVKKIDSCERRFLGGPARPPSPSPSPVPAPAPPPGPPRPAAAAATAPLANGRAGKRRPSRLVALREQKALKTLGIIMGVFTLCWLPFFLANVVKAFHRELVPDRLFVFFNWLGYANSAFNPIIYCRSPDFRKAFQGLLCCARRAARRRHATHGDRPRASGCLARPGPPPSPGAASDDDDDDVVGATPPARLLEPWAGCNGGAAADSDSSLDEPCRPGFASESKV
Procedure: Chinese hamster ovary (CHO)-K1 cells were used for all transient transfections. CHO-K1 cells stably expressing the secreted placental alkaline phosphatase reporter gene under the transcriptional control of a 6-cAMP response element promoter (CHO-CS cells) were used as a control, as appropriate. […] In BiFC experiments, membrane-associated BODIPY-TMR-CGP fluorescence was measured by drawing ROIs around membranes of cells that were identified to express BiFC-constrained homodimers by examination of the YFP fluorescence. […] The koff is the dissociation rate of BODIPY-TMR-CGP. […] Within this analysis, koff(fast) and Plateau was constrained to the average rate of dissociation and the average Plateau (in %) reached by BODIPY-TMR-CGP in control CHO-CS cells (i.e., cell not expressing the receptor of interest to determine the nonspecific BODIPY-TMR-CGP binding component).

[4] = molecular target: T1, human β1-adrenoceptor; assay: Association and dissociation kinetics of 10, 30 and 100 nM BODIPY-TMR-CGP in CHO-β1 cells (confocal perfusion system, single living cells); type: binding; settings: for pKD: from kon and koff(slow); for koff(fast): nonspecific component constrained to average CHO-CS dissociation rate
Procedure: (§1) Live cell fluorescence imaging was performed on the Zeiss LSM510 laser scanning confocal microscope using a Zeiss Plan-Neofluar ×40 1.3 NA oil-immersion objective in conjunction with a temperature-controlled (37°C) perfusion system to allow the visualization and quantification of BODIPY-TMR-CGP dissociation kinetics under infinite dilution (ID) conditions in single living cells ([25]). Kinetic experiments were performed as described by May et al. ([25]). In brief, cells were grown to near confluence on 32 mm glass coverslips in 6-well plates 1 d prior to experimentation. On the day of experimentation, the coverslip was placed into a tightly closed imaging chamber on a heated (37°C) microscope stage, where it was connected to tubes to facilitate the flow of imaging buffer through the imaging chamber in the absence and presence of BODIPY-TMR-CGP and/or unlabeled ligands at a constant flow rate of ≥4 ml/min.
(§2) For association and dissociation kinetic experiments of 10–100 nM BODIPY-TMR-CGP in CHO-β1 and CHO-CS cells, the cells were exposed to imaging buffer only (30 s baseline fluorescence recording), then BODIPY-TMR-CGP (4.5 min association), and followed again by imaging buffer only (4.5 min dissociation). BODIPY-TMR-CGP was excited using a 543 nm helium-neon laser with emission collected through a 565 nm long-pass filter every 3 s throughout each experiment (512 × 512 pixels, averaging at 2 frames). The pinhole diameter (1 airy unit), laser power (2%), offset, and gain remained constant between the 3 BODIPY-TMR-CGP concentrations and the 2 cell lines used. Membrane-associated BODIPY-TMR-CGP fluorescence was measured by drawing regions of interest (ROIs) around the membranes of 10 single cells of each imaged coverslip, and changes in the average pixel intensity values for each ROI over time were analyzed to obtain association and dissociation rates for each experiment.
(§3) GraphPad Prism 5.0 (GraphPad Software, San Diego, CA, USA) was used to fit all data presented in this study. Association kinetic data were fitted using the following monoexponential association equation: [drawing 1] where Y0 is the level of BODIPY-TMR-CGP binding at time t = 0 (i.e., baseline fluorescence), Plateau is the level of BODIPY-TMR-CGP binding at infinite time, and konobs is the rate of observed association.
The koff is the dissociation rate of BODIPY-TMR-CGP. Where a level of nonspecific binding >10% of total binding was observed, the dissociation kinetic data were fitted to a 2-phase exponential decay function [drawing 5] where Plateau and t are as defined above, and Spanfast and Spanslow represent the proportion of Y0-Plateau accounted for by the fast (koff(fast)) and slow (koff(slow)) dissociation rate, respectively. Within this analysis, koff(fast) and Plateau was constrained to the average rate of dissociation and the average Plateau (in %) reached by BODIPY-TMR-CGP in control CHO-CS cells (i.e., cell not expressing the receptor of interest to determine the nonspecific BODIPY-TMR-CGP binding component).

[5] = molecular target: T4, β1YFPN/β1D138AYFPC BiFC-constrained β1-adrenoceptor homodimers (Homo sapiens, UniProt P08588); assay: 3 nM BODIPY-TMR-CGP dissociation at BiFC-constrained wild-type/nonligand-binding β1-adrenoceptor homodimers in CHO-K1 cells; settings: infinite dilution, absence of unlabeled ligands
T4 construct: to the C-terminal end of the full-length wild-type human β1-adrenoceptor; expressed in transfected cells; host or cells: CHO-K1 cells, transient co-transfection (pcDNA3.1)
T4 sequence (P08588 whole entry): as the sequence (P08588 whole entry D138A) above, with A138D counted along it
T4 sequence (P08588 whole entry D138A partner): as the sequence (P08588 whole entry D138A) above
Description: (§4) The SNAP-β1 construct was generated by fusing the SNAP-tag (New England Biolabs, Ipswich, MA, USA) to the N-terminal end of the wild-type human β1-adrenoceptor. The […] mutation ([7]) was introduced into the β1-YFPC and the SNAP-β1 sequence using the QuikChange site-directed mutagenesis kit (Agilent Technologies, Cheshire, United Kingdom). All sequences were confirmed by DNA sequencing. All receptor constructs were subcloned into pcDNA3.1 vectors. In bimolecular fluorescence complementation (BiFC) experiments, CHO-K1 cells were seeded onto coverslips on day 1 and transiently transfected with YFPN- and YFPC-tagged β1-adrenoceptor recombinant DNA (750 ng total) using Lipofectamine 2000 and Opti-MEM medium according to the manufacturer's instructions on day 2. […] In BiFC experiments, membrane-associated BODIPY-TMR-CGP fluorescence was measured by drawing ROIs around membranes of cells that were identified to express BiFC-constrained homodimers by examination of the YFP fluorescence. […] The koff is the dissociation rate of BODIPY-TMR-CGP. […] Within this analysis, koff(fast) and Plateau was constrained to the average rate of dissociation and the average Plateau (in %) reached by BODIPY-TMR-CGP in control CHO-CS cells (i.e., cell not expressing the receptor of interest to determine the nonspecific BODIPY-TMR-CGP binding component).

[6] = molecular target: T1, human β1-adrenoceptor; assay: 3 nM BODIPY-TMR-CGP kinetics and influence of unlabeled ligands on its dissociation rate in CHO-β1 cells under infinite dilution; type: binding
[7] = test system: CHO-CS cells; assay: Association and dissociation of BODIPY-TMR-CGP in control CHO-CS cells (nonspecific binding); parameters: species or system Chinese hamster; settings: for koff(fast) / konobs: CHO-CS cells
Description: Chinese hamster ovary (CHO)-K1 cells were used for all transient transfections. CHO-K1 cells stably expressing the secreted placental alkaline phosphatase reporter gene under the transcriptional control of a 6-cAMP response element promoter (CHO-CS cells) were used as a control, as appropriate. CHO-CS cell lines either expressing human wild-type β1-adrenoceptors (CHO-β1 cells; 1147 fmol/mg protein) ([6]) or human β1-adrenoceptors containing 11 amino acid mutations (G177V, L178I, V179I, C180L, T181M, A184I, I185V, A187G, V189T, L195Q, and W199Y that convert TM4 to the equivalent residues in the β2-adrenoceptor; CHO-β1TM4 cells) ([11]) were used. CHO-K1, CHO-CS, CHO-β1, and CHO-β1TM4 cells were grown at 37°C in CHO growth medium [DMEM/Ham's nutrient mixture F12 containing 10% (v/v) fetal calf serum and 2 mM L-glutamine] in a humidified 5% CO2/95% air atmosphere.
as §1, §2, §3
The koff is the dissociation rate of BODIPY-TMR-CGP. […]

[8] = molecular target: T5, β1YFPN/β1YFPC BiFC-constrained β1-adrenoceptor homodimers (Homo sapiens, UniProt P08588); assay: 3 nM BODIPY-TMR-CGP dissociation at BiFC-constrained wild-type β1-adrenoceptor homodimers in CHO-K1 cells; type: binding; settings: infinite dilution, absence of unlabeled ligands
T5 construct: to the C-terminal end of the full-length wild-type human β1-adrenoceptor; expressed in transfected cells; host or cells: CHO-K1 cells, transient co-transfection (pcDNA3.1)
T5 sequence (P08588 whole entry): as the sequence (P08588 whole entry D138A) above, with A138D counted along it
T5 sequence (P08588 whole entry): as the sequence (P08588 whole entry D138A) above, with A138D counted along it
Description: as §4

[9] = 3 nM BODIPY-TMR-CGP, based on affinity from functional assays
[10] = 3 nM BODIPY-TMR-CGP, global fit of association and dissociation traces

T1 sequence (P08588 whole entry): as the sequence (P08588 whole entry D138A) above, with A138D counted along it

## bordifluoropyrromethane-tetramethylrhodamine-(±)CGP 12177 [BODIPY-TMR-CGP]
[1]; [9]
  occupancy of the high-affinity β1-adrenoceptor conformation: ~86%
  occupancy of the secondary low-affinity β1-adrenoceptor conformation: ~3%
[1]; functional studies, read-out: affinity value for the high-affinity (orthosteric) β1-adrenoceptor conformation
  Kd: 0.6 nM
[1]; read-out: affinity value for the low-affinity β1-adrenoceptor conformation
  Kd: 87 nM
[2]
  binding of 3 nM BODIPY-TMR-CGP (membrane fluorescence): no binding
[3]
  koff of 3 nM BODIPY-TMR-CGP: 0.0011 ± 8.3e-05 s⁻¹ and 0.0012 ± 0.00033 s⁻¹
[4]; 10 nM BODIPY-TMR-CGP
  kon: 5.29 ± 0.79 ×10^7 M^−1⋅min^−1
  konobs: 0.63 ± 0.08 min⁻¹
  pKD: 8.71 ± 0.05
[4]; 10 nM BODIPY-TMR-CGP, monoexponential dissociation
  koff(slow): 0.09 ± 0.01 min⁻¹
[4]; 30 nM BODIPY-TMR-CGP
  kon: 5.17 ± 0.28 ×10^7 M^−1⋅min^−1
  konobs: 1.64 ± 0.08 min⁻¹
  pKD: 8.77 ± 0.08
  koff(fast): 0.0412 s⁻¹
[4]; 30 nM BODIPY-TMR-CGP, 2-phase decay
  koff(slow): 0.09 ± 0.01 min⁻¹
[4]; 100 nM BODIPY-TMR-CGP
  kon: 2.94 ± 0.12^*^,^# ×10^7 M^−1⋅min^−1
  konobs: 3.08 ± 0.11 min^−1 and 3.08 ± 0.11^*^,^# min^−1
  pKD: 8.32 ± 0.06^*^,^#
  koff(fast): 0.0412 s⁻¹
[4]; 100 nM BODIPY-TMR-CGP, 2-phase decay
  koff(slow): 0.14 ± 0.02^*^,^# min^−1
[5]
  koff of 3 nM BODIPY-TMR-CGP: 0.0009 ± 0.000183 s⁻¹ and 0.00083 ± 0.00017 s⁻¹
[6]; [10]
  association rate constant (kon): 5.27 ± 0.53 × 10^7 M^−1⋅min^−1
  dissociation rate (koff): 0.0013 ± 0.00017 s⁻¹
  pKD: 8.83 ± 0.06
[6]; infinite dilution, absence of unlabeled ligands, 1-phase dissociation
  koff of 3 nM BODIPY-TMR-CGP: 0.0015 ± 0.00017 s⁻¹ and 0.0015 s⁻¹
[7]; 30 nM BODIPY-TMR-CGP
  koff(fast): 0.041 ± 0.008 s⁻¹
  konobs: 1.40 ± 0.26 min⁻¹
[7]; 100 nM BODIPY-TMR-CGP
  koff(fast): 0.0412 ± 0.00217 s⁻¹
  konobs: 1.62 ± 0.13 min⁻¹
[7]; average over BODIPY-TMR-CGP concentrations, used as constraint for koff(fast)
  average dissociation rate obtained in CHO-CS cells: 2.47 min⁻¹
[8]
  koff of 3 nM BODIPY-TMR-CGP: 0.00033 ± 0.00017 s⁻¹ and 0.00033 s⁻¹
